Source: patent US20240325371A1, “USE OF EZH2 INHIBITOR IN PREPARATION OF DRUG FOR TREATING T-CELL LYMPHOMA” (JIANGSU HENGRUI MEDICINE CO., LTD., priority 2021, published 2024)

Test system: relapsed or refractory PTCL
Test: Efficacy study of compound shown in Formula (I) in peripheral T-cell lymphoma patients
Type: in vivo, human
Method: ORR: Defined as the proportion of subjects with best efficacy of CR or PR from the start of the first dose to the occurrence of PD or the start of subsequent new anti-tumor treatment, whichever occurs first. • 1.1 Drugs: Compound (WO2017084494A) shown in Formula (1), strength: 50 mg/tablet, 200 mg/tablet. • 1.2 Methods of administration: 350 mg, twice a day, 28 days as a cycle. • 1.3 Inclusion criteria: Relapsed or refractory T lymphocytic lymphoma. A total of 24 patients with relapsed or refractory PTCL were enrolled in the 350 mg group, of whom 16 received chidamide, and all patients were analyzed for efficacy data based on indistinguishable prior treatment and prior chidamide treatment.

SMILES: CCc1c(N(CC)C2CCOCC2)cc2oc(CN3CCCCC3)cc2c1C(=O)NCc1c(C)cc(C)[nH]c1=O [Formula (I)]
- ORR (350 mg group having used chidamide, ES, AITL (n = 8)): 62.5%
- ORR (350 mg group having used chidamide, ES, ALL (n = 14)): 64.3%
- ORR (350 mg group having used chidamide, ES, PTCL-NOS (n = 6)): 66.7%
- ORR (350 mg group having used chidamide, FAS, AITL (n = 10)): 50.0%
- ORR (350 mg group having used chidamide, FAS, ALL (n = 16)): 56.3%
- ORR (350 mg group having used chidamide, FAS, PTCL-NOS (n = 6)): 66.7%
- ORR (350 mg twice a day, ES, AITL (n = 11)): 72.7%
- ORR (350 mg twice a day, ES, ALL (n = 18)): 66.7%
- ORR (350 mg twice a day, ES, PTCL-NOS (n = 7)): 57.1%
- ORR (350 mg twice a day, FAS, AITL (n = 15)): 53.3%
- ORR (350 mg twice a day, FAS, ALL (n = 24)): 50%
- ORR (350 mg twice a day, FAS, PTCL-NOS (n = 9)): 44.4%
